Active and inactive are the calls of the source. The rule behind the calls is not given here. Non-standard residues stand in square brackets, D forms with d. Residues, ends and D or L forms follow the SMILES beside them. *: point of attachment. NMeW = CN[C@@H](Cc1c[nH]c2ccccc12)C(=O)O; Phe(4-F) = N[C@@H](Cc1ccc(F)cc1)C(=O)O; NMeY = CN[C@@H](Cc1ccc(O)cc1)C(=O)O; Acetyl(2-thienyl) = O=C(Cc1cccs1)*; NMeF = CN[C@@H](Cc1ccccc1)C(=O)O; hArg = N=C(N)NCCCC[C@H](N)C(=O)O; αMeF = C[C@](N)(Cc1ccccc1)C(=O)O; Tic = O=C(O)[C@@H]1Cc2ccccc2CN1; NMeN = CN[C@@H](CC(N)=O)C(=O)O; NMeL = CN[C@@H](CC(C)C)C(=O)O; Pip = O=C(O)[C@@H]1CCCCN1
What was measured:
[1] = biological target: T1, Neuromedin-U receptor 1 (Homo sapiens) (UniProt Q9HB89); test: Antagonist activity at human NMUR1 stably expressed in CHO cells by Fluo-4 AM dye based calcium mobilization assay; type: functional, cell-based; conditions: dose 30-300 nM
T1 sequence (whole entry): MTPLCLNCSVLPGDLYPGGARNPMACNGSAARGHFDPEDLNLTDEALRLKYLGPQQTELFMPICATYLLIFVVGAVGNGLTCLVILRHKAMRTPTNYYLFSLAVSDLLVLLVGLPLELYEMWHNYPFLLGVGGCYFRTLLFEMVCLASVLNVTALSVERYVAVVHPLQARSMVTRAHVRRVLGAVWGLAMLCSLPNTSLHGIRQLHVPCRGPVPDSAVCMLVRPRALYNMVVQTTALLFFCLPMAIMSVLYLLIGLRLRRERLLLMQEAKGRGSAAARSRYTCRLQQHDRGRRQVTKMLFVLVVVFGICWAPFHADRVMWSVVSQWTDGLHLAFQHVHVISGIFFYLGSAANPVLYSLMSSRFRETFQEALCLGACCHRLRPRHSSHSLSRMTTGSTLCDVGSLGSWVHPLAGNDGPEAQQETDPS

Neuromedin-U receptor 2 [2] = biological target: T2, Neuromedin-U receptor 2 (Homo sapiens, UniProt Q9GZQ4); test: Antagonist activity at human NMUR2 stably expressed in CHO cells by Fluo-4 AM dye based calcium mobilization assay; type: functional, cell-based; conditions: filed as antagonist, dose 30-300 nM
T2 sequence (Q9GZQ4 whole entry): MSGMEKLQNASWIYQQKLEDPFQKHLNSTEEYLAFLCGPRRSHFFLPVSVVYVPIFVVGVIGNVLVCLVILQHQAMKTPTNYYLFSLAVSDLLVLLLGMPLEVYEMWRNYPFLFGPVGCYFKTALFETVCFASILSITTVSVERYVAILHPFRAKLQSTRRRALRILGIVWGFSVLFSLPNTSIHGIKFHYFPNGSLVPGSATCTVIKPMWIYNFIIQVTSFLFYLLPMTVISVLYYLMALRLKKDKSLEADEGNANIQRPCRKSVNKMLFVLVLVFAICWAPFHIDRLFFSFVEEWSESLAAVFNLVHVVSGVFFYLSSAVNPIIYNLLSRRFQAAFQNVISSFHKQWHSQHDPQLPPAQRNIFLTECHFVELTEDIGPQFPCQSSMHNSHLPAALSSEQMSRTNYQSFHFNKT

Homo sapiens = organism: Homo sapiens; test: Selectivity ratio of human NMUR2 to human NMUR1
[3] = biological target: T1, Neuromedin-U receptor 1 (Homo sapiens); test: Binding affinity to human NMUR1 assessed as equilibrium binding constant; conditions: filed as antagonist
[4] = Drug degradation in human serum assessed as half life by RP-HPLC analysis; type: ADME, cell-free
Neuromedin-U receptor 2 [5] = biological target: T2, Neuromedin-U receptor 2; test: Antagonist potency at human NMUR2 stably expressed in CHO cells by Fluo-4 AM dye based calcium mobilization assay; type: functional, cell-based; conditions: read-out: pA2 (converted)
[6] = biological target: T3, Neuromedin-U receptor 1 (Mus musculus) (UniProt O55040); test: Antagonist activity at mouse NMUR1 expressed in HEK293 cells by Fluo-4 AM dye based calcium mobilization assay; type: functional, cell-based
T3 sequence (whole entry): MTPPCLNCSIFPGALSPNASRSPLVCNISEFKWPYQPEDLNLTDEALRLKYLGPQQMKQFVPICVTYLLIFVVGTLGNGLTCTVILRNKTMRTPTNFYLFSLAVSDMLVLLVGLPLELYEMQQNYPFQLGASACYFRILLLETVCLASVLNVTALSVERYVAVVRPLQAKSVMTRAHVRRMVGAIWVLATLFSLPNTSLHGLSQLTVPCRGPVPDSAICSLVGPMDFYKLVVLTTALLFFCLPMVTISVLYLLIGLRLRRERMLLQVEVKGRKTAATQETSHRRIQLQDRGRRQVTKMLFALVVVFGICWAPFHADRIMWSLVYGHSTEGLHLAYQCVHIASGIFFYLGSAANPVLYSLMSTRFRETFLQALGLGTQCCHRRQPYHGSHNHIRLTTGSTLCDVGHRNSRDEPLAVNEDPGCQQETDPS

Neuromedin-U receptor 1 = biological target: T4, Neuromedin-U receptor 1 (Homo sapiens, UniProt Q9HB89); test: Antagonist potency at human NMUR1 stably expressed in CHO cells by Fluo-4 AM dye based calcium mobilization assay; type: functional, cell-based; conditions: read-out: pA2 (converted)
T4 sequence (Q9HB89 whole entry): T1 sequence (whole entry)

[7] = biological target: Neuromedin-U receptor 2 (Mus musculus) (UniProt Q8BZ39); test: Antagonist activity at mouse NMUR2 expressed in HEK293 cells by Fluo-4 AM dye based calcium mobilization assay; type: functional, cell-based
Sequence of Neuromedin-U receptor 2 (Mus musculus) (Q8BZ39 whole entry): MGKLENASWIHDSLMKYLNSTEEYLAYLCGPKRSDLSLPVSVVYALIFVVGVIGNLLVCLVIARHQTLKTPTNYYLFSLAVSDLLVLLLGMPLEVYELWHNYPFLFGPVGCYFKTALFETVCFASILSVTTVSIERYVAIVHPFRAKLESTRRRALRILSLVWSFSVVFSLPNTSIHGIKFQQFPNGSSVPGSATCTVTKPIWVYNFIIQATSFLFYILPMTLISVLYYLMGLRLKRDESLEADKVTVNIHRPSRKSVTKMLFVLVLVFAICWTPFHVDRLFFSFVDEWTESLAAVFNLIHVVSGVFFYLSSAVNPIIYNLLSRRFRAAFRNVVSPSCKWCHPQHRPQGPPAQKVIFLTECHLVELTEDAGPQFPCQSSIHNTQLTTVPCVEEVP

Neuromedin-U receptor 2 [8] = biological target: T2, Neuromedin-U receptor 2; test: Binding affinity to human NMUR2 assessed as equilibrium binding constant; conditions: filed as antagonist
[9] = biological target: T1, Neuromedin-U receptor 1 (Homo sapiens); test: Antagonist activity at human NMUR1 stably expressed in CHO cells at 100 to 1000 nM by Fluo-4 AM dye based calcium mobilization assay; type: functional, cell-based; conditions: filed as antagonist, dose 100-1000 nM
[10] = Drug degradation in human serum assessed as drug recovery incubated for 15 mins in presence of argatroban by RP-HPLC analysis; type: ADME, cell-free; conditions: with argatroban, read-out: Drug recovery
[11] = Retention time in human serum measured at 40 min by RP-HPLC analysis; type: ADME, cell-free
[12] = Drug degradation in rat serum by RP-HPLC analysis; type: ADME, cell-free
[13] = Drug metabolism in rat serum assessed as (2S)-5-guanidino-2-[[(2S)-1-[(2S)-5-guanidino-2-[[(2S)-2-[[(2S)-3-(1H-indol-3-yl)-2-[methyl-[2-(2-thienyl)acetyl]amino]propanoyl]amino]-2-methyl-3-phenyl-propanoyl]amino]pentanoyl]pyrrolidine-2-carbonyl]amino]pentanoic acid formation by RP-HPLC analysis; type: ADME, cell-free
[14] = Stability in human plasma assessed drug recovery measured at 120 mins by RP-HPLC analysis; type: ADME, cell-free; conditions: read-out: Drug recovery
[15] = Drug degradation in human serum assessed as drug recovery incubated for 15 mins in presence of aprotinin by RP-HPLC analysis; type: ADME, cell-free; conditions: 0.25 h

CN(C(=O)Cc1cccs1)[C@@H](Cc1ccccc1)C(=O)N[C@@H](Cc1ccccc1)C(=O)N[C@@H](CCCNC(=N)N)C(=O)N1CCC[C@H]1C(=O)N[C@@H](CCCNC(=N)N)C(=O)N[C@@H](CC(N)=O)C(N)=O ({Acetyl(2-thienyl)}-[NMeF]FRPRN-NH2)
Activity ([1]; filed as antagonist): Active

CC(C)C[C@@H](C(=O)N[C@@H](Cc1ccccc1)C(=O)N[C@@H](CCCNC(=N)N)C(=O)N1CCC[C@H]1C(=O)N[C@@H](CCCNC(=N)N)C(=O)N[C@@H](CC(N)=O)C(N)=O)N(C)C(=O)Cc1cccs1 ({Acetyl(2-thienyl)}-[NMeL]FRPRN-NH2)
Activity ([1]; filed as antagonist): Active

CN(C(=O)Cc1cccs1)[C@@H](CC(N)=O)C(=O)N[C@@H](Cc1ccccc1)C(=O)N[C@@H](CCCNC(=N)N)C(=O)N1CCC[C@H]1C(=O)N[C@@H](CCCNC(=N)N)C(=O)N[C@@H](CC(N)=O)C(N)=O ({Acetyl(2-thienyl)}-[NMeN]FRPRN-NH2)
Activity ([1]; filed as antagonist): Active

CN(C(=O)Cc1cccs1)[C@@H](Cc1c[nH]c2ccccc12)C(=O)N[C@@H](Cc1ccccc1)C(=O)N[C@@H](CCCNC(=N)N)C(=O)N1CCC[C@H]1C(N)=O ({Acetyl(2-thienyl)}-[NMeW]FRP-NH2)
Activity (Neuromedin-U receptor 2 [2]): Active
Activity ([1]; filed as antagonist): Active

CN(C(=O)Cc1cccs1)[C@@H](Cc1c[nH]c2ccccc12)C(=O)N[C@@H](Cc1ccccc1)C(=O)N[C@@H](CCCNC(=N)N)C(=O)N1CCC[C@H]1C(=O)N[C@@H](CCCCN)C(=O)N[C@@H](CC(N)=O)C(N)=O ({Acetyl(2-thienyl)}-[NMeW]FRPKN-NH2)
Activity [1]: inactive

CN(C(=O)Cc1cccs1)[C@@H](Cc1c[nH]c2ccccc12)C(=O)N[C@@H](Cc1ccccc1)C(=O)N[C@@H](CCCNC(=N)N)C(=O)N1CCC[C@H]1C(=O)N[C@@H](CCCNC(=N)N)C(N)=O ({Acetyl(2-thienyl)}-[NMeW]FRPR-NH2)
Selectivity ratio (Homo sapiens): 2.1
Activity ([1]; filed as antagonist): Active

CN(C(=O)Cc1cccs1)[C@@H](Cc1c[nH]c2ccccc12)C(=O)N[C@@H](Cc1ccccc1)C(=O)N[C@@H](CCCNC(=N)N)C(=O)N1CCC[C@H]1C(=O)N[C@@H](CCCNC(=N)N)C(=O)O ({Acetyl(2-thienyl)}-[NMeW]FRPR-OH)
Activity (Neuromedin-U receptor 2 [2]): Active
Activity ([1]; filed as antagonist): Active

CN(C(=O)Cc1cccs1)[C@@H](Cc1c[nH]c2ccccc12)C(=O)N[C@@H](Cc1ccccc1)C(=O)N[C@@H](CCCNC(=N)N)C(=O)N1CCC[C@H]1C(=O)N[C@@H](CCCNC(=N)N)C(=O)N[C@@H](CC(=O)O)C(N)=O ({Acetyl(2-thienyl)}-[NMeW]FRPRD-NH2)
Activity ([1]; filed as antagonist): Active

CN(C(=O)Cc1cccs1)[C@@H](Cc1c[nH]c2ccccc12)C(=O)N[C@@H](Cc1ccccc1)C(=O)N[C@@H](CCCNC(=N)N)C(=O)N1CCC[C@H]1C(=O)N[C@@H](CCCNC(=N)N)C(=O)N[C@@H](CC(N)=O)C(N)=O ({Acetyl(2-thienyl)}-[NMeW]FRPRN-NH2)
Activity ([1]; filed as antagonist): Active

CN(C(=O)Cc1cccs1)[C@@H](Cc1c[nH]c2ccccc12)C(=O)N[C@@H](Cc1ccccc1)C(=O)N[C@@H](CCCNC(=N)N)C(=O)N1CCC[C@H]1C(=O)N[C@@H](CCCNC(=N)N)C(=O)N[C@@H](CC(N)=O)C(=O)O ({Acetyl(2-thienyl)}-[NMeW]FRPRN-OH)
Activity ([1]; filed as antagonist): Active

CN(C(=O)Cc1cccs1)[C@@H](Cc1c[nH]c2ccccc12)C(=O)N[C@@H](Cc1ccccc1)C(=O)N[C@@H](CCCNC(=N)N)C(=O)N1CCC[C@H]1C(=O)N[C@@H](CCCNC(=N)N)C(=O)N[C@@H](CCC(N)=O)C(N)=O ({Acetyl(2-thienyl)}-[NMeW]FRPRQ-NH2)
Activity ([1]; filed as antagonist): Active

CN(C(=O)Cc1cccs1)[C@@H](Cc1c[nH]c2ccccc12)C(=O)N[C@@H](Cc1ccccc1)C(=O)N[C@@H](CCCNC(=N)N)C(=O)N1CCC[C@H]1C(=O)N[C@@H](CCCCNC(=N)N)C(N)=O ({Acetyl(2-thienyl)}-[NMeW]FRP[hArg]-NH2)
Activity (Neuromedin-U receptor 2 [2]): Active
Activity ([1]; filed as antagonist): Active

CN(C(=O)Cc1cccs1)[C@@H](Cc1c[nH]c2ccccc12)C(=O)N[C@@H](Cc1ccccc1)C(=O)N[C@@H](CCCNC(=N)N)C(=O)N1CCCC[C@H]1C(=O)N[C@@H](CCCNC(=N)N)C(=O)N[C@@H](CC(N)=O)C(N)=O ({Acetyl(2-thienyl)}-[NMeW]FR[Pip]RN-NH2)
Activity ([1]; filed as antagonist): Active

CC(C)C[C@H](NC(=O)[C@H](Cc1c[nH]c2ccccc12)N(C)C(=O)Cc1cccs1)C(=O)N[C@@H](CCCNC(=N)N)C(=O)N1CCC[C@H]1C(=O)N[C@@H](CCCNC(=N)N)C(=O)N[C@@H](CC(N)=O)C(N)=O ({Acetyl(2-thienyl)}-[NMeW]LRPRN-NH2)
Activity ([1]; filed as antagonist): Active

CN(C(=O)Cc1cccs1)[C@@H](Cc1c[nH]c2ccccc12)C(=O)N[C@@H](Cc1c[nH]c2ccccc12)C(=O)N[C@@H](CCCNC(=N)N)C(=O)N1CCC[C@H]1C(=O)N[C@@H](CCCNC(=N)N)C(=O)N[C@@H](CC(N)=O)C(N)=O ({Acetyl(2-thienyl)}-[NMeW]WRPRN-NH2)
Activity ([1]; filed as antagonist): Active

CN(C(=O)Cc1cccs1)[C@@H](Cc1c[nH]c2ccccc12)C(=O)N[C@@H](Cc1ccc(F)cc1)C(=O)N[C@@H](CCCNC(=N)N)C(=O)N1CCC[C@H]1C(=O)N[C@@H](CCCNC(=N)N)C(N)=O ({Acetyl(2-thienyl)}-[NMeW][Phe(4-F)]RPR-NH2)
Kb [3]: 6.4 nM
half-life [4]: 1.9 min
Kb (Neuromedin-U receptor 2 [5]): 41.7 nM
Activity [6]: inactive
Kb (Neuromedin-U receptor 1): 6.46 nM
Activity [7]: inactive
Kb (Neuromedin-U receptor 2 [8]): 41 nM
Activity (Neuromedin-U receptor 2 [2]): Active
Activity [9]: Active
Activity ([1]; filed as antagonist): Active

CN(C(=O)Cc1cccs1)[C@@H](Cc1c[nH]c2ccccc12)C(=O)N1Cc2ccccc2C[C@H]1C(=O)N[C@@H](CCCNC(=N)N)C(=O)N1CCC[C@H]1C(=O)N[C@@H](CCCNC(=N)N)C(N)=O ({Acetyl(2-thienyl)}-[NMeW][Tic]RPR-NH2)
Selectivity ratio (Homo sapiens): 2

CN(C(=O)Cc1cccs1)[C@@H](Cc1c[nH]c2ccccc12)C(=O)N[C@@](C)(Cc1ccccc1)C(=O)N[C@@H](CCCNC(=N)N)C(=O)N1CCC[C@H]1C(=O)N[C@@H](CCCNC(=N)N)C(N)=O ({Acetyl(2-thienyl)}-[NMeW][αMeF]RPR-NH2)
remaining at 0.25 h [10]: 97%
Retention_time [11]: 48.27 min
Kb [3]: 45 nM
half-life [4]: 5 min
Stability [12]: Unstable
Kb (Neuromedin-U receptor 2 [5]): 417 nM
Selectivity ratio (Homo sapiens): 2.3
Activity [6]: inactive
Kb (Neuromedin-U receptor 1): 44.7 nM
Activity [7]: inactive
Drug metabolism [13]: Metabolite_Detected
Kb (Neuromedin-U receptor 2 [8]): 421 nM
Activity (Neuromedin-U receptor 2 [2]): Dose-Dependent Effect
remaining at 2 h [14]: 96.7%
Stability [15]: Stable
Activity ([1]; filed as antagonist): Dose-Dependent Effect

CN(C(=O)Cc1cccs1)[C@@H](Cc1ccc(O)cc1)C(=O)N[C@@H](Cc1ccccc1)C(=O)N[C@@H](CCCNC(=N)N)C(=O)N1CCC[C@H]1C(=O)N[C@@H](CCCNC(=N)N)C(=O)N[C@@H](CC(N)=O)C(N)=O ({Acetyl(2-thienyl)}-[NMeY]FRPRN-NH2)
Activity ([1]; filed as antagonist): Active
